Experiment: Curcumin administration test (A) in HFD-challenged mice: plasma TCHO, CM, LDL (Test Example 11)
Format: in vivo, mice (C57BL/6)
Conditions: HFD-challenged C57BL/6 mice, ad libitum drinking of aqueous liquid for 12 weeks
Protocol: In this test, total cholesterol (TCHO), chylomicron (CM), and LDL cholesterol (LDL) were measured. […] After the feeding period, blood was sampled and centrifuged at […] at 4° C. for 15 minutes to obtain plasma. The plasma was measured by a Fuji Dri-Chem 4000V biochemical automatic analyzer (Fujifilm, Tokyo, Japan).

In the case of `CC(C)(Oc1ccc(CCNC(=O)c2ccc(Cl)cc2)cc1)C(=O)O` [Bezafibrate], the “CM (chylomicron) in plasma” value is reported as 0.53 mg/dL, the “LDL (LDL cholesterol) in plasma” value is reported as 17.9 mg/dL and the “TCHO (total cholesterol) in plasma” value is reported as 125.0 mg/dL.

Reference: patent publication US20200009211A1, “CURCUMIN-CONTAINING MEDICINAL PREPARATION” (SAN-EI GEN F.F.I., INC., priority 2017, published 2020)
